Experimental data reported in the supplement of paper PMC10307832.

Assays:
Assay in all cases: relative viability (nuclei count vs DMSO), 5 days (fraction); higher = more cells survive
Trametinib + Dasatinib = compound: CC(=O)Nc1cccc(-n2c(=O)n(C3CC3)c(=O)c3c(Nc4ccc(I)cc4F)n(C)c(=O)c(C)c32)c1 [Trametinib] + Cc1nc(Nc2ncc(C(=O)Nc3c(C)cccc3Cl)s2)cc(N2CCN(CCO)CC2)n1 [Dasatinib] (partner 0.075 µM)
Method in brief: (§1)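 Lung cancer cell lines were pin-tool dosed in 1536-well plates on the day after seeding, with either a lone drug or a fixed anchor-drug dose plus five library-drug doses (not always all listed) in √10 steps. Nuclei were counted on 4× images after 5 days. Relative viability is the ratio of treated-well to vehicle-well nuclei counts, with each value a median of duplicate plates.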

[1] = compound: CN1C=C(C2=CC=CC=C21)/C=C\3/C4=C(C=CC=N4)NC3=O + CC(=O)c1c(C)c2cnc(Nc3ccc(N4CCNCC4)cn3)nc2n(C2CCCC2)c1=O [Palbociclib] (partner 0.5 µM)
Method in brief: as §1

Trametinib + Crizotinib = compound: CC(=O)Nc1cccc(-n2c(=O)n(C3CC3)c(=O)c3c(Nc4ccc(I)cc4F)n(C)c(=O)c(C)c32)c1 [Trametinib] + C[C@@H](Oc1cc(-c2cnn(C3CCNCC3)c2)cnc1N)c1c(Cl)ccc(F)c1Cl [Crizotinib] (partner 1 µM)
Method in brief: as §1

Trametinib + Alpelisib = compound: CC(=O)Nc1cccc(-n2c(=O)n(C3CC3)c(=O)c3c(Nc4ccc(I)cc4F)n(C)c(=O)c(C)c32)c1 [Trametinib] + Cc1nc(NC(=O)N2CCC[C@H]2C(N)=O)sc1-c1ccnc(C(C)(C)C(F)(F)F)c1 [Alpelisib] (partner 2 µM)
Method in brief: as §1

Row | Cell Line | relative viability (Trametinib + Dasatinib; first compound 0.0025 µM) | relative viability (Trametinib + Dasatinib; first compound 0.007906 µM) | relative viability (Trametinib + Dasatinib; first compound 0.025 µM) | relative viability (Trametinib + Dasatinib; first compound 0.07906 µM) | relative viability (Trametinib + Dasatinib; first compound 0.25 µM) | relative viability ([1]; first compound 0.02 µM) | relative viability ([1]; first compound 0.06325 µM) | relative viability ([1]; first compound 0.2 µM) | relative viability ([1]; first compound 0.6325 µM) | relative viability ([1]; first compound 2 µM) | relative viability (Trametinib + Crizotinib; first compound 0.0025 µM) | relative viability (Trametinib + Crizotinib; first compound 0.007906 µM) | relative viability (Trametinib + Crizotinib; first compound 0.025 µM) | relative viability (Trametinib + Crizotinib; first compound 0.07906 µM) | relative viability (Trametinib + Crizotinib; first compound 0.25 µM) | relative viability (Trametinib + Alpelisib; first compound 0.0025 µM) | relative viability (Trametinib + Alpelisib; first compound 0.007906 µM) | relative viability (Trametinib + Alpelisib; first compound 0.025 µM) | relative viability (Trametinib + Alpelisib; first compound 0.07906 µM) | relative viability (Trametinib + Alpelisib; first compound 0.25 µM)
1 | NCI-H1666 | 0.812 | 0.841 | 0.755 | 0.666 | 0.506 | 0.604 | 0.62 | 0.634 | 0.574 | 0.632 | 0.74 | 0.766 | 0.72 | 0.586 | 0.394 | 0.697 | 0.501 | 0.465 | 0.331 | 0.306
2 | NCI-H1734 | 0.54 | 0.592 | 0.399 | 0.56 | 0.387 | 0.316 | 0.372 | – | 0.334 | 0.345 | 0.644 | 0.622 | – | 0.493 | 0.285 | 0.627 | 0.712 | – | 0.631 | 0.444
3 | NCI-H1755 | 0.409 | 0.433 | 0.492 | 0.427 | 0.322 | 0.434 | 0.463 | 0.431 | 0.433 | 0.427 | 0.807 | 0.789 | 0.706 | 0.772 | 0.691 | 0.798 | 0.83 | 0.799 | 0.802 | 0.753
4 | NCI-H1792 | 0.694 | 0.515 | 0.652 | 0.549 | 0.396 | 0.624 | 0.679 | 0.656 | – | 0.559 | 0.92 | 0.949 | 0.738 | 0.553 | 0.488 | 0.644 | 0.53 | 0.537 | 0.382 | 0.255
5 | NCI-H1915 | 0.273 | 0.203 | 0.196 | 0.109 | 0.0747 | 0.489 | 0.511 | 0.533 | 0.598 | 0.721 | 0.872 | 0.756 | 0.568 | 0.333 | 0.231 | 1.06 | 0.906 | 0.6 | 0.528 | 0.254
6 | NCI-H1944 | 0.193 | 0.177 | 0.164 | 0.144 | 0.145 | 0.28 | 0.351 | – | 0.267 | 0.314 | 1 | 0.763 | 0.762 | 0.629 | 0.326 | 0.716 | 0.603 | 0.532 | 0.463 | 0.325
7 | NCI-H1975 | 0.28 | 0.218 | 0.15 | 0.172 | 0.123 | 0.623 | 0.361 | 0.45 | 0.442 | 0.504 | 0.965 | 0.937 | 0.757 | 0.499 | 0.381 | 0.547 | 0.415 | 0.301 | 0.223 | 0.268
8 | NCI-H1993 | 0.51 | 0.521 | 0.505 | 0.521 | 0.551 | 0.606 | 0.594 | 0.656 | 0.455 | 1.19 | 0.796 | 0.716 | 0.797 | 0.674 | 0.662 | 0.649 | 0.722 | 0.656 | 0.699 | 0.649
9 | NCI-H2009 | 0.203 | 0.169 | 0.143 | 0.168 | 0.157 | 0.189 | 0.198 | 0.202 | 0.198 | 0.201 | 1.08 | 0.586 | 0.336 | 0.301 | 0.266 | 0.88 | 0.72 | 0.444 | 0.485 | 0.362
10 | NCI-H2023 | 0.484 | 0.485 | 0.515 | 0.34 | 0.221 | 0.412 | 0.369 | – | 0.45 | 0.372 | 0.597 | 0.543 | 0.475 | 0.442 | 0.247 | 0.38 | 0.486 | 0.315 | 0.352 | 0.288
11 | NCI-H2085 | 0.215 | 0.185 | 0.233 | 0.213 | 0.222 | 0.452 | 0.473 | 0.508 | 0.471 | 0.461 | 0.793 | 0.69 | 0.698 | 0.688 | 0.63 | 0.916 | 0.757 | 0.635 | 0.655 | 0.608
12 | NCI-H2087 | 0.366 | 0.236 | 0.117 | 0.127 | 0.156 | 0.243 | 0.178 | 0.229 | 0.199 | 0.237 | 0.888 | 0.667 | 0.495 | 0.33 | 0.289 | 0.705 | 0.442 | 0.371 | 0.28 | 0.266
13 | NCI-H2126 | 0.452 | 0.44 | 0.395 | 0.412 | 0.445 | 0.325 | 0.31 | 0.348 | 0.319 | 0.326 | 1.01 | 0.959 | 0.788 | 0.832 | 0.749 | 0.706 | 0.608 | 0.447 | 0.527 | 0.45
14 | NCI-H2170 | 0.56 | 0.476 | 0.37 | 0.347 | 0.416 | 0.293 | 0.408 | 0.349 | 0.392 | 0.434 | 1.16 | 1.07 | – | 1.1 | 1.04 | 0.828 | 0.721 | – | 0.669 | 0.638
15 | NCI-H2228 | 0.44 | 0.36 | 0.348 | 0.237 | 0.143 | 0.744 | 0.572 | 0.394 | 0.769 | 0.906 | 0.33 | 0.398 | 0.438 | 0.254 | 0.247 | 0.749 | 0.527 | 0.488 | 0.331 | 0.194
16 | NCI-H2347 | 0.234 | 0.16 | 0.162 | 0.172 | 0.149 | 0.418 | 0.41 | 0.398 | 0.395 | 0.416 | 0.698 | 0.476 | 0.252 | 0.464 | 0.433 | 0.96 | 0.552 | 0.346 | 0.38 | 0.36
